Source: PubChem BioAssay AID651630 (Sanford-Burnham Center for Chemical Genomics, 2012)
pIC50: −log10 of the molar value. Active and inactive are the calls of the source.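 How the source made its calls: active means lipid-stain IC50 at or below a set limit, with nuclear-stain toxicity IC50 at least five times higher; inactive means the rest.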

How the values were obtained:
DAPI = assay: triacylglycerol accumulation inhibitor potency, dose response, cell-based, panel, Nile Red and DAPI fluorescence, H9c2 (AID 651630); conditions: H9c2 cells, DAPI nuclear fluorescence (cytotoxicity counter-readout), oleic acid;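 further: cells exposed to compound overnight before fixation and staining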
TAG = assay: as above; conditions: H9c2 cells, Nile Red TAG fluorescence, oleic acid

| SMILES | IC50 cytotoxicity (DAPI nuclear signal decrease) (DAPI; mean of runs) | IC50 cytotoxicity (DAPI nuclear signal decrease) (DAPI; run 1) | IC50 cytotoxicity (DAPI nuclear signal decrease) (DAPI; run 2) | IC50 (TAG; mean of runs) | pIC50 (TAG; run 1) | pIC50 (TAG; run 2) | pIC50 (TAG; mean of runs) |
| --- | --- | --- | --- | --- | --- | --- | --- |
| Cc1ccc(/C=N/NC(=O)c2cc(-c3cccnc3)nc3ccccc23)cc1 | > 25 µM (inactive) | > 25 µM | > 25 µM | > 25 µM (inactive) | < 4.60 | < 4.60 |  |
| CCN1CCN(Cc2ccc(NC(=O)c3cc(NC(=O)c4cncc(-c5cccs5)c4)cc(OC)c3)cc2C(F)(F)F)CC1 | > 25 µM (inactive) | > 25 µM | > 25 µM |  | 4.91 | 5.07 | 4.98 |
| Cc1cccn2c(=O)c3cc(C(=O)NC4CCCC4)c(=N)n(C4CCCC4)c3nc12 | > 25 µM (inactive) | > 25 µM | > 25 µM |  | 5.09 | 4.80 | 4.92 |
| CN(C)CCCn1c(=O)n(C2CCCCC2)c(=O)c2c3c(sc21)CCCCC3 | > 25 µM (inactive) | > 25 µM | > 25 µM | > 25 µM (inactive) | < 4.60 | < 4.60 |  |
| CCCC1O[C@@H]2C[C@H]3[C@@H]4CCC5=CC(=O)C=C[C@]5(C)[C@H]4[C@@H](O)C[C@]3(C)[C@]2(C(=O)CO)O1 (stereo not given in full) |  | > 25 µM | > 25 µM |  | 5.45 | 5.46 | 5.46 |
| COc1cc2c(cc1[N+](=O)[O-])-c1ccc([N+](=O)[O-])cc1C2=NNC(N)=S | > 25 µM (inactive) | > 25 µM | > 25 µM | > 25 µM (inactive) | < 4.60 | < 4.60 |  |
| C[C@@H]1CN([C@@H](C)CO)C(=O)c2cccc(NC(=O)C3CCCCC3)c2O[C@@H]1CN(C)Cc1ccc(Cl)c(Cl)c1 | > 25 µM (inactive) | > 25 µM | > 25 µM |  | 5.01 | 4.88 | 4.94 |
| Cc1cccc(NC(=O)C(C)Sc2nc3ccccc3c(=O)n2CCCN2CCOCC2)c1 (stereo not given) | > 25 µM (inactive) | > 25 µM | > 25 µM | 20.5 µM (inactive) | 4.69 | 4.69 |  |
| CCOc1ccc(CCNC(=O)CN(C)S(=O)(=O)c2cccc3nsnc23)cc1OCC | > 25 µM (inactive) | > 25 µM | > 25 µM | 17.5 µM (inactive) | 4.85 | 4.68 |  |
| C=CCC[C@@H](Cc1ccc(F)cc1)C(=O)OC[C@@H](NC(=O)[C@@H](CC=C)CC(=O)N[C@H](CO)Cc1ccccc1)C(C)(C)C | > 25 µM (inactive) | > 25 µM | > 25 µM |  | 5.06 | 4.99 | 5.02 |
| Cc1ccc(C(=O)NCCN2C3=NC[C@H](C(C)C)N3C[C@H]2Cc2ccc(O)cc2)cc1Br | > 25 µM (inactive) | > 25 µM | > 25 µM | 16.8 µM (inactive) | 4.77 | 4.78 |  |
| Cn1nnc2c[n+](CC(=O)c3ccc(Cl)cc3)cc(Br)c21 | 21.5 µM (inactive) | 20.9 µM | 22.1 µM |  | 4.86 | 4.88 | 4.87 |
| O=C(CC1C[C@H](C(=O)N2CCCCC2)[C@@]2(CCc3ccccc3)c3[nH]c4ccccc4c3CCN2C1=O)NCc1cccc(C(F)(F)F)c1 (stereo not given in full) | > 25 µM (inactive) | > 25 µM | > 25 µM |  | 5.31 | 5.23 | 5.27 |
| COc1ccc(-c2nc(NC(=O)C3CCN(c4nc5ccccc5o4)CC3)sc2C)cc1 | > 25 µM (inactive) | > 25 µM | > 25 µM |  | 4.81 | 4.98 | 4.89 |
| CCCCSc1nc2ccc(Nc3nc(N4CCOCC4)nc(N4CCOCC4)n3)cc2s1 |  | > 25 µM | > 25 µM |  | 5.30 | 5.34 | 5.32 |
| O=C(c1ccoc1)N1CCN(c2cc(-c3cccnc3)nc3cc(-c4cccc(Cl)c4)nn23)CC1 |  | > 25 µM | > 25 µM |  | 5.50 | 5.17 | 5.31 |
| COc1ccc(-c2nn(-c3ccccc3)cc2/C=C/C(=O)OCC(=O)Nc2ccccc2C#N)cc1 | > 25 µM (inactive) | > 25 µM | > 25 µM |  | 4.78 | < 4.60 |  |

| SMILES | IC50 cytotoxicity (DAPI nuclear signal decrease) (DAPI; mean of runs) | IC50 cytotoxicity (DAPI nuclear signal decrease) (DAPI; run 1) | IC50 cytotoxicity (DAPI nuclear signal decrease) (DAPI; run 2) | IC50 (TAG; mean of runs) | pIC50 (TAG; run 1) | pIC50 (TAG; run 2) | pIC50 (TAG; mean of runs) |
| --- | --- | --- | --- | --- | --- | --- | --- |
| C=CCn1c(SCc2c(C)noc2C)nc2sc3c(c2c1=O)CCC(C)C3 (stereo not given) | > 25 µM (inactive) | > 25 µM | > 25 µM | > 25 µM (inactive) | < 4.60 | < 4.60 |  |
| C=CCC[C@@H](Cc1ccc(F)cc1)C(=O)OC[C@@H](Cc1c[nH]c2ccccc12)NC(=O)[C@H](CC=C)CC(=O)N(CCO)Cc1ccccc1 | > 25 µM (inactive) | > 25 µM | > 25 µM |  | 5.20 | 5.11 | 5.16 |
| C=CC[C@@H](CC(=O)N(CCO)Cc1ccccc1)C(=O)N[C@H](COC(=O)[C@@H](CC=C)Cc1ccc(F)cc1)C(C)(C)C |  | > 25 µM | > 25 µM |  | 5.45 | 5.30 | 5.37 |
| COc1cc(-c2nnc3n2N=C(c2ccccc2)CS3)cc(OC)c1OC | > 25 µM (inactive) | > 25 µM | > 25 µM |  | 4.83 | 4.92 | 4.87 |
| CCCC(=O)Nc1nc2ccc(NC(=O)c3c(F)c(F)c(OC)c(F)c3F)cc2s1 | > 25 µM (inactive) | > 25 µM | > 25 µM |  | 5.18 | 5.24 | 5.21 |
| O=C(N/N=C/c1ccc2c(c1)OCO2)c1cc(-c2ccncc2)nc2ccccc12 | > 25 µM (inactive) | > 25 µM | > 25 µM |  | 4.77 | 4.90 | 4.83 |
| CC1(C(=O)Nc2ccc3c(c2)OCO3)Cc2c(-c3cccc(C(N)=O)c3)ccnc2O1 (stereo not given) | > 25 µM (inactive) | > 25 µM | > 25 µM |  | < 4.60 | 4.72 |  |
| COc1ccc(Oc2nc(-c3ccccn3)nc3ccccc23)cc1 | > 25 µM (inactive) | > 25 µM | > 25 µM | > 25 µM (inactive) | < 4.60 | < 4.60 |  |
| CC(C)=CCNc1ncnc2c1c(C#N)cn2C1OC(CO)C(O)C1O (stereo not given) | > 25 µM (inactive) | > 25 µM | > 25 µM | > 25 µM (inactive) | < 4.60 | < 4.60 |  |
| Cc1ccc(Cc2nnc(SCC(=O)Nc3ccccc3)n(N)c2=O)cc1 | > 25 µM (inactive) | > 25 µM | > 25 µM |  | 5.07 | 5.01 | 5.04 |
| CCC(C)(C)C1CCC2(CC1)NC(=O)N(CC(=O)NCCc1ccc(OC)c(OC)c1)C2=O (stereo not given) |  | > 25 µM | > 25 µM |  | 5.72 | 5.33 | 5.48 |
| Cc1ccc(C(=O)Nc2cc(C)c(OCC(=O)N3CCOCC3)c(C)c2)cc1 | > 25 µM (inactive) | > 25 µM | > 25 µM | > 25 µM (inactive) | < 4.60 | < 4.60 |  |
| CCOC(=O)[C@H]1[C@H]2COc3ccc(Cl)cc3[C@@H]2N2C(=O)c3cc(Cl)ccc3NC(=O)[C@@]12C | > 25 µM (inactive) | > 25 µM | > 25 µM |  | 4.93 | 5.19 | 5.04 |
| CCCCN1C(=O)/C(=C/C=C2/C=Cc3ccccc3N2CC)SC1=S |  | > 25 µM | > 25 µM |  | 5.62 | 5.21 | 5.37 |
| COc1ccc(C2c3cc4c(cc3OC(N3CCOCC3)C2C)OCO4)c(OC)c1 (stereo not given) | > 25 µM (inactive) | > 25 µM | > 25 µM |  | 5.19 | 4.86 | 5.00 |
| Cc1cc(NC(=O)CSc2nc(C(C)C)nc3sc4c(c23)CCC(C)C4)no1 (stereo not given) | > 25 µM (inactive) | > 25 µM | > 25 µM | > 25 µM (inactive) | < 4.60 | < 4.60 |  |
